Values quoted from earlier work as cited in US20190290478A1, “MEDICINAL HERBAL COMPOSITION FOR EYE APPLICATION” (priority 2018, published 2019).

Legend:
[1] = test system: HCECs exposed to hyperosmotic stress
[2] = test system: murine dry eye; conditions: 10 mM betaine compared with placebo on the 14, 21, 35 days

## C[N+](C)(C)CC(=O)O [betaine]
[1]
  inflammatory response via TRPV1 pathway: suppress inflammatory response
[2]
  dry eye's symptom: significantly reduced
